This is an account of results in EP4692079A1, “CYP11A1 INHIBITOR AND USE THEREOF” (priority 2023, dated 2024).

The subject of series [1] is testosterone level in NCI-H295R cells. The series can be described thus: cells. It counts as cell-based. Conditions: for IC50 / inhibition at 0.1 µM / inhibition at 1 µM: Homo sapiens, NCI-H295R, 72 h; for IC50: read-out: Testosterone level in H295R (Elisa) IC50 nM; for inhibition at 0.1 µM: read-out: Testosterone level in H295R (Elisa) inh.% 100 nM, 100 nM compound, NCI-H295R cells, three days incubation; for inhibition at 1 µM: read-out: Testosterone level in H295R (Elisa) inh.% 1000 nM, 1000 nM compound, NCI-H295R cells, three days incubation. On the procedure: The purpose of the experimental study was intended to detect the testosterone level in the NCI-H295R cells by adopting the Enzyme linked immunosorbent assay (ELISA), so as to evaluate the inhibitory effects of the compounds on the testosterone level in the NCI-H295R cells.
The H295R cells were purchased from ATCC, the cell complete medium contained DMEM: F12+ 10% FBS +0.00625 mg/ml insulin +0.00625 mg/ml transferrin+6.25 ng/ml selenium +1.25 mg/ml BSA+0.00535 mg/ml linoleic acid, and the cells were cultured in a 37°C, 5% CO2 incubator. The cells in the exponential growth phase were collected, and cultured in a cytokine-free medium (phenol red 1640-free +1% PS+10% css FBS+1.25 mg/ml BSA +0.00625 mg/ml insulin + 0.00625 mg/ml transferrin+6.25 ng/ml selenium+0.00535 mg/ml linoleic acid) for three days. The cells in the exponential growth phase were collected on the third day. The cell suspension was adjusted with a cytokine-free medium to a corresponding concentration and plated at 60000 cells/well, with the volume being 90 µL/well. Subsequently, 10 µL of the compounds at different concentrations was added and the plate was incubated in a CO2 incubator for three days. After the incubation was completed, according to the operation instructions for testosterone Elisa kit (Beyotime, PT872), 50 µL of the cell culture supernatant was collected from each well and centrifuged at 500 g for 5 min at room temperature and then the resulting supernatant was collected. The samples were added to the corresponding wells at 25 µl/well, and then formulated horseradish peroxidase labelled testosterone was added at 75 µl/well. The mixture was fully mixed for 10 seconds. The reaction wells were sealed with a plate-sealing film (white) and the mixture was incubated at room temperature in the dark for 120 min. The plate was washed three times with a volume of 300 µl per well, and then placed onto thick absorbent paper and dried. Chromogenic reagent TMB solution was added at 100 µl/well. The reaction wells were sealed with a plate-sealing film (white) and the mixture was incubated at room temperature in the dark for 15-20 min. Subsequently, a termination solution was added at 50 µl/well, and after the mixture was fully mixed, the absorbance value OD450 was immediately measured. The absorbance readings were processed using Graphpad Prim 8.0 software and S-shaped concentration curves were plotted and the IC50 values were calculated using a four-parameter non-linear regression model.

A short description of series [2]: Pharmacokinetic test in rats. It counts as in vivo. Conditions: rat, male SD rats, plasma. On the procedure:
3.1 Experimental animals: Male SD rats (about 220 g, 6-8 weeks old, 6 rats/compound) were purchased from Chengdu Dossy Experimental Animals Co., Ltd.
3.2 Experimental design: On the day of the experiment, the SD rats were randomly grouped by body weight. […] Table 4 Administration information
Before and after the administration, 0.1 ml of blood was taken from the orbit of the animals under isoflurane anaesthesia and placed in an EDTAK2 centrifuge tube. The blood was centrifuged at 5000 rpm and 4°C for 10 min to collect plasma. […] Before analysis and detection, all samples were stored at -80°C. Table 5 Pharmacokinetic parameters of test compounds in plasma of rats

The mark [3] stands for this setting: po, intragastric administration (10 mg/kg).
Where [4] appears, read: intravenous administration (2.5 mg/kg).

Structures are written as SMILES.

The IC50 is the concentration that gives 50% inhibition. As for `O=C(OC1CC1)N1CCC(COc2coc(CN3Cc4ccc(C(F)(F)F)cc4C3)cc2=O)CC1` [Compound 32], in series [1], the IC50 amounted to 117 nM, the inhibition at 0.1 µM came out at 76.1% and the inhibition at 1 µM worked out at 64.3%.

For the compound `CC1(NC2CCC(/C=C/c3coc(CN4Cc5ccc(C(F)(F)F)cc5C4)cc3=O)CC2)COC1` (single isomer, unassigned) [Compound 122], in series [1], the inhibition at 0.1 µM stood at 63% and the inhibition at 1 µM came out at 82%.

As to `CS(=O)(=O)N1CC(OC(=O)N2CCC(COc3coc(CN4Cc5ccc(S(F)(F)(F)(F)F)cc5C4)cc3=O)CC2)C1` [Compound 19], in series [1], the inhibition at 0.1 µM came out at 64.8% and the inhibition at 1 µM was 78.3%.

Turning to `O=C(OC1CC1)N1CC(/C=C/c2coc(CN3Cc4ccc(C(F)(F)F)cc4C3)cc2=O)C1` [Compound 53], in series [1], the inhibition at 0.1 µM came out at 61% and the inhibition at 1 µM was 67.3%.

For `C#CCCS(=O)(=O)N1CCC(COc2coc(CN3Cc4ccc(C(F)(F)F)cc4C3)cc2=O)CC1` [Compound 12], in series [1], the inhibition at 0.1 µM was found to be 85.6% and the inhibition at 1 µM came to 83.4%.

Take `O=C(N[C@H]1CC[C@H](C(=O)Nc2coc(CN3Cc4ccc(C(F)(F)F)cc4C3)cc2=O)CC1)C1CC1` [Compound 119]: in series [1], the inhibition at 0.1 µM was 60% and the inhibition at 1 µM is 81%.

In the case of `O=c1cc(CN2Cc3ccc(C(F)(F)F)cc3C2)occ1OC[C@H]1CC[C@@H](NS(=O)(=O)CC2CC2)CC1` [Compound 10], in series [1], the inhibition at 0.1 µM came out at 63% and the inhibition at 1 µM turned out to be 79.7%.

Regarding `CS(=O)(=O)N1CCC2(CC1)CC2C(=O)N1CCC(COc2coc(CN3Cc4ccc(C(F)(F)F)cc4C3)cc2=O)CC1` (single isomer, unassigned) [Compound 70], the “Testosterone level in H295R (Elisa) inh.% 100 nM” value in series [1] (100 nM compound, NCI-H295R cells, three days incubation) is reported as 60%. For the same compound, in series [1] (1000 nM compound, NCI-H295R cells, three days incubation), the “Testosterone level in H295R (Elisa) inh.% 1000 nM” value is on record as 83%.

Consider `CS(=O)(=O)N1CCC2(CC1)CC2C(=O)N1CCC(COc2coc(CN3Cc4ccc(C(F)(F)F)cc4C3)cc2=O)CC1` (single isomer, unassigned) [Compound 69], for which, in series [1], the inhibition at 0.1 µM worked out at 62% and the inhibition at 1 µM was found to be 76%.

Turning to `CS(=O)(=O)N1CC(OC(=O)N2CC(COc3coc(CN4Cc5ccc(C(F)(F)F)cc5C4)cc3=O)C2)C1` [Compound 60], in series [1], the inhibition at 0.1 µM was determined as 57.7% and the inhibition at 1 µM stood at 78.5%.

For the compound `O=c1cc(CN2Cc3ccc(C(F)(F)F)cc3C2)occ1OC[C@H]1CC[C@H](NS(=O)(=O)c2ccsc2)CC1` [Compound 68], in series [1], the inhibition at 0.1 µM was 81% and the inhibition at 1 µM is 86%.

For the compound `CS(=O)(=O)N1CC(OC(=O)N2CC3C(COc4coc(CN5Cc6ccc(C(F)(F)F)cc6C5)cc4=O)C3C2)C1` (stereo not shown) [Compound 77], in series [1], the inhibition at 0.1 µM was found to be 71% and the inhibition at 1 µM came to 84%.

Consider `O=C(N[C@H]1CC[C@H](COc2coc(CN3Cc4ccc(C(F)(F)F)cc4C3)cc2=O)CC1)[C@H]1CC1(F)F` [Compound 65], for which, in series [1], the inhibition at 0.1 µM turned out to be 80% and the inhibition at 1 µM amounted to 78%.

Regarding `Cc1nc(C(=O)N[C@H]2CC[C@H](COc3coc(CN4Cc5ccc(OC6CC6)cc5C4)cc3=O)CC2)cs1` [Compound 47], in series [1], the inhibition at 0.1 µM came to 72.2% and the inhibition at 1 µM was 69.3%.

As to `CC(OC(=O)N1CCC(COc2coc(CN3Cc4ccc(C(F)(F)F)cc4C3)cc2=O)CC1)C(F)(F)F` (single isomer, unassigned) [Compound 56], in series [1], the inhibition at 0.1 µM is 53.6% and the inhibition at 1 µM came to 79.3%.

With `Cn1ncc(C(=O)N[C@H]2CC[C@H](/C=C/c3coc(CN4Cc5ccc(C(F)(F)F)cc5C4)cc3=O)CC2)c1F` [Compound 106], in series [1], the inhibition at 0.1 µM amounted to 69% and the inhibition at 1 µM is 93%.

Turning to `CS(=O)(=O)N1CCC2(CC1)CC(C(=O)N1CCC(COc3coc(CN4Cc5ccc(C(F)(F)F)cc5C4)cc3=O)CC1)C2` [Compound 75], in series [1], the inhibition at 0.1 µM is 69% and the inhibition at 1 µM stood at 78%.

In the case of `C#Cc1ccc2c(c1)CN(Cc1cc(=O)c(OCC3CCN(C(=O)OC4COC4)CC3)co1)C2` [Compound 6], in series [1], the inhibition at 0.1 µM was 79.5% and the inhibition at 1 µM stood at 90.8%.

For `CS(=O)(=O)N1CC(OC(=O)N2CCC(COc3coc(CN4Cc5ccc(OC6CC6)cc5C4)cc3=O)CC2)C1` [Compound 25], in series [1], the inhibition at 0.1 µM was determined as 56% and the inhibition at 1 µM was determined as 77%.

In the case of `O=C(N[C@H]1CC[C@H](COc2coc(CN3Cc4ccc(OC5CC5)cc4C3)cc2=O)CC1)C1CC1` [Compound 34], in series [1], the IC50 was 122 nM.

As to `O=C(CC1CC1)N1CCC(/C=C/c2coc(CN3Cc4ccc(C5CC5)cc4C3)cc2=O)CC1` [Compound 16], in series [1], the IC50 is 98.3 nM, the inhibition at 0.1 µM was 55% and the inhibition at 1 µM is 79.6%.

A word on the AUC(0-t): it is the area under the concentration-time curve up to a stated or last time point. One may read the half-life as the time needed for the level to fall by half in the phase considered. Read a high half-life as slow decline. The clearance is the rate of elimination divided by the concentration. Read a low clearance as a low capacity for elimination. Turning to `O=C(OC1CC1)N1CCC(/C=C/c2coc(CN3Cc4ccc(C(F)(F)F)cc4C3)cc2=O)CC1` [Compound 31], in series [2] (setting [3]), the AUC(0-t) is 13400 ng·h/mL and the half-life was 5.65 h. Moreover, in series [2] (setting [4]), the AUC(0-t) came out at 4270 ng·h/mL, the clearance turned out to be 9.48 mL/min/kg and the half-life is 5.16 h. In addition, the Vd in series [2] (intravenous administration (2.5 mg/kg), read-out: Vdss) stood at 3.41 L/kg.

On to `CC(F)(F)C(=O)N[C@H]1CC[C@H](/C=C/c2coc(CN3Cc4ccc(C(F)(F)F)cc4C3)cc2=O)CC1` [Compound 108], for which, in series [1], the inhibition at 0.1 µM is 75% and the inhibition at 1 µM came out at 84%.

Consider `O=C(N[C@H]1CC[C@H](COc2coc(CN3Cc4ccc(C(F)(F)F)cc4C3)cc2=O)CC1)[C@@H]1CC1(F)F` [Compound 66], for which, in series [1], the inhibition at 0.1 µM was found to be 78% and the inhibition at 1 µM stood at 82%.

For `O=C(CC(F)(F)F)N[C@H]1CC[C@H](/C=C/c2coc(CN3Cc4ccc(C(F)(F)F)cc4C3)cc2=O)CC1` [Compound 102], in series [1], the inhibition at 0.1 µM worked out at 79% and the inhibition at 1 µM was determined as 82%.

`CS(=O)(=O)N[C@H]1C[C@H](C(=O)N2CCC(COc3coc(CN4Cc5ccc(C(F)(F)F)cc5C4)cc3=O)CC2)C1` [Compound 72]: in series [1], the inhibition at 0.1 µM was 58% and the inhibition at 1 µM was 68%.

`O=C(N[C@H]1CC[C@H](CCc2coc(CN3Cc4ccc(C(F)(F)F)cc4C3)cc2=O)CC1)[C@H]1CC1(F)F` [Compound 113]: in series [1], the inhibition at 0.1 µM was 76% and the inhibition at 1 µM worked out at 77%.

`O=C(C1CC(F)(F)C1)N1CCC(COc2coc(CN3Cc4ccc(C(F)(F)F)cc4C3)cc2=O)CC1` [Compound 73]: in series [1], the inhibition at 0.1 µM came to 83% and the inhibition at 1 µM came out at 87%.

Turning to `O=C(N[C@H]1CC[C@H](CCc2coc(CN3Cc4ccc(C(F)(F)F)cc4C3)cc2=O)CC1)[C@@H]1CC1(F)F` [Compound 112], in series [1], the inhibition at 0.1 µM turned out to be 74% and the inhibition at 1 µM was determined as 78%.

On to `CS(=O)(=O)N1CC(OC(=O)N2CCC(/C=C/c3coc(CN4Cc5ccc(C(F)(F)F)cc5C4)cc3=O)CC2)C1` [Compound 26], for which, in series [1], the inhibition at 0.1 µM is 61% and the inhibition at 1 µM is 78%.

For the compound `O=c1cc(CN2Cc3ccc(C(F)(F)F)cc3C2)occ1/C=C/[C@H]1CC[C@H](NS(=O)(=O)CC2CC2)CC1` [Compound 62], in series [1], the inhibition at 0.1 µM was found to be 67% and the inhibition at 1 µM stood at 79%.

On to `O=C(O[C@H]1CCOC1)N1CCC(/C=C/c2coc(CN3Cc4ccc(OC5CC5)cc4C3)cc2=O)CC1` [Compound 48], for which, in series [1], the inhibition at 0.1 µM was 72.4% and the inhibition at 1 µM was 78.5%.

As for `O=C(OC1CC1)N1CCC(COc2coc(CN3Cc4ccc(OC5CCC5)cc4C3)cc2=O)CC1` [Compound 49], in series [1], the inhibition at 0.1 µM worked out at 67.3% and the inhibition at 1 µM is 75.2%.

Turning to `O=C(N[C@H]1CC[C@@H](COc2coc(CN3Cc4ccc(C(F)(F)F)cc4C3)cc2=O)CC1)C1CC1(F)F` (stereo partly shown) [Compound 55], in series [1], the inhibition at 0.1 µM worked out at 63% and the inhibition at 1 µM turned out to be 72.7%.
